Measured values as given in the NIST ThermoML archive (doi:10.1021/je7006549).
± gives the expanded uncertainty stated by the source.

Assays:
[1] = 101 kPa, Liquid
[2] = mn = molality of the nth substance listed, in mol/kg; settings: 101 kPa, Liquid

CCc1ccccc1 [ethylbenzene]
[1]
Settings	mass density [kg/m3]	viscosity [mPa·s]
303.15 K	858 ± 0.7	0.5986 ± 0.0095
308.15 K	853.5 ± 0.7	0.5691 ± 0.0093
313.15 K	849.5 ± 0.8	0.5372 ± 0.009
318.15 K	844.7 ± 0.8	0.506 ± 0.0088
323.15 K	840.5 ± 0.8	0.4805 ± 0.0086
328.15 K	835.9 ± 0.8	0.4566 ± 0.0085
333.15 K	831.6 ± 0.9	0.4371 ± 0.0083

Cc1cccc(C)c1 [1,3-dimethylbenzene]
[1]
Settings	mass density [kg/m3]	viscosity [mPa·s]
303.15 K	855.6 ± 0.7	0.549 ± 0.0092
308.15 K	851.1 ± 0.8	0.5201 ± 0.009
313.15 K	846.9 ± 0.8	0.4967 ± 0.0088
318.15 K	842.4 ± 0.8	0.4817 ± 0.0087
323.15 K	838.3 ± 0.8	0.444 ± 0.0085
328.15 K	833.7 ± 0.9	0.435 ± 0.0084
333.15 K	829.6 ± 0.9	0.413 ± 0.0082

Cc1ccc(C)cc1 [1,4-dimethylbenzene]
[1]
Settings	mass density [kg/m3]	viscosity [mPa·s]
303.15 K	852 ± 0.7	0.5726 ± 0.0093
308.15 K	847.7 ± 0.7	0.5374 ± 0.009
313.15 K	843.2 ± 0.8	0.5178 ± 0.0089
318.15 K	838.7 ± 0.8	0.4882 ± 0.0087
323.15 K	834.5 ± 0.8	0.4595 ± 0.0085
328.15 K	829.9 ± 0.8	0.4439 ± 0.0084
333.15 K	825.6 ± 0.9	0.4189 ± 0.0082

Cc1ccccc1C [1,2-dimethylbenzene]
[1]
Settings	mass density [kg/m3]	viscosity [mPa·s]
303.15 K	872.1 ± 0.7	0.7404 ± 0.011
308.15 K	867.7 ± 0.8	0.69 ± 0.01
313.15 K	864 ± 0.8	0.6451 ± 0.0099
318.15 K	859.7 ± 0.8	0.6117 ± 0.0096
323.15 K	855.5 ± 0.8	0.5711 ± 0.0093
328.15 K	851.2 ± 0.8	0.5433 ± 0.0091
333.15 K	847.1 ± 0.9	0.5105 ± 0.0088

CC1=CC(=O)c2ccccc2C1=O [2-methyl-1,4-naphthalenedione] + Cc1cccc(C)c1
[2]
Settings	mass density [kg/m3]	viscosity [mPa·s]
303.15 K, m1 = 0.0452	857.6 ± 0.7	0.5673 ± 0.0094
303.15 K, m1 = 0.0902	859.6 ± 0.7	0.5771 ± 0.0095
303.15 K, m1 = 0.1352	861.6 ± 0.8	0.5802 ± 0.0095
303.15 K, m1 = 0.1802	863.6 ± 0.8	0.5844 ± 0.0095
303.15 K, m1 = 0.2254	865.6 ± 0.8	0.5902 ± 0.0096
303.15 K, m1 = 0.272	867.7 ± 0.8	0.6031 ± 0.0097
308.15 K, m1 = 0.0452	853.1 ± 0.8	0.5351 ± 0.0091
308.15 K, m1 = 0.0902	855.1 ± 0.8	0.5422 ± 0.0092
308.15 K, m1 = 0.1352	857.1 ± 0.8	0.5467 ± 0.0092
308.15 K, m1 = 0.1802	859.1 ± 0.8	0.5523 ± 0.0093
308.15 K, m1 = 0.2254	861.1 ± 0.8	0.5566 ± 0.0093
308.15 K, m1 = 0.272	863.2 ± 0.8	0.5654 ± 0.0094
313.15 K, m1 = 0.0452	848.9 ± 0.8	0.5098 ± 0.0089
313.15 K, m1 = 0.0902	850.9 ± 0.8	0.5144 ± 0.009
313.15 K, m1 = 0.1352	852.9 ± 0.8	0.5188 ± 0.009
313.15 K, m1 = 0.1802	854.9 ± 0.8	0.5237 ± 0.009
313.15 K, m1 = 0.2254	856.9 ± 0.8	0.5284 ± 0.0091
313.15 K, m1 = 0.272	859 ± 0.8	0.5352 ± 0.0091
318.15 K, m1 = 0.0452	844.4 ± 0.8	0.4864 ± 0.0088
318.15 K, m1 = 0.0902	846.4 ± 0.8	0.4931 ± 0.0088
318.15 K, m1 = 0.1352	848.4 ± 0.8	0.4977 ± 0.0088
318.15 K, m1 = 0.1802	850.4 ± 0.8	0.5013 ± 0.0089
318.15 K, m1 = 0.2254	852.4 ± 0.8	0.505 ± 0.0089
318.15 K, m1 = 0.272	854.5 ± 0.8	0.5117 ± 0.0089
323.15 K, m1 = 0.0452	840.3 ± 0.8	0.4593 ± 0.0086
323.15 K, m1 = 0.0902	842.3 ± 0.8	0.4642 ± 0.0086
323.15 K, m1 = 0.1352	844.3 ± 0.8	0.4669 ± 0.0086
323.15 K, m1 = 0.1802	846.3 ± 0.8	0.4711 ± 0.0086
323.15 K, m1 = 0.2254	848.3 ± 0.8	0.4753 ± 0.0087
323.15 K, m1 = 0.272	850.4 ± 0.8	0.4817 ± 0.0087
328.15 K, m1 = 0.0452	835.7 ± 0.9	0.4381 ± 0.0084
328.15 K, m1 = 0.0902	837.7 ± 0.9	0.4432 ± 0.0084
328.15 K, m1 = 0.1352	839.7 ± 0.9	0.4456 ± 0.0085
328.15 K, m1 = 0.1802	841.7 ± 0.9	0.4497 ± 0.0085
328.15 K, m1 = 0.2254	843.7 ± 0.9	0.4539 ± 0.0085
328.15 K, m1 = 0.272	845.8 ± 0.9	0.463 ± 0.0086
333.15 K, m1 = 0.0452	831.6 ± 0.9	0.4148 ± 0.0082
333.15 K, m1 = 0.0902	833.6 ± 0.9	0.4198 ± 0.0083
333.15 K, m1 = 0.1352	835.6 ± 0.9	0.4242 ± 0.0083
333.15 K, m1 = 0.1802	837.6 ± 0.9	0.4269 ± 0.0083
333.15 K, m1 = 0.2254	839.6 ± 0.9	0.429 ± 0.0083
333.15 K, m1 = 0.272	841.7 ± 0.9	0.4342 ± 0.0084

Cc1ccccc1 [toluene]
[1]
Settings	mass density [kg/m3]	viscosity [mPa·s]
303.15 K	857.5 ± 0.7	0.5253 ± 0.009
308.15 K	852.9 ± 0.8	0.4933 ± 0.0088
313.15 K	847.9 ± 0.8	0.4717 ± 0.0086
318.15 K	843.5 ± 0.8	0.4491 ± 0.0085
323.15 K	838.7 ± 0.8	0.4244 ± 0.0083
328.15 K	834 ± 0.9	0.4082 ± 0.0082
333.15 K	829.1 ± 0.9	0.3835 ± 0.008

c1ccccc1 [benzene]
[1]
Settings	mass density [kg/m3]	viscosity [mPa·s]
303.15 K	868 ± 0.7	0.564 ± 0.0093
308.15 K	862.2 ± 0.8	0.5232 ± 0.009
313.15 K	857 ± 0.8	0.5001 ± 0.0088
318.15 K	851.6 ± 0.8	0.4714 ± 0.0086
323.15 K	846.3 ± 0.8	0.4397 ± 0.0084
328.15 K	840.7 ± 0.9	0.4145 ± 0.0082
333.15 K	835.4 ± 0.9	0.3932 ± 0.0081

CC1=CC(=O)c2ccccc2C1=O [2-methyl-1,4-naphthalenedione] + Cc1ccccc1C
[2]
Settings	mass density [kg/m3]	viscosity [mPa·s]
303.15 K, m1 = 0.0436	873.9 ± 0.7	0.7432 ± 0.011
303.15 K, m1 = 0.0884	875.8 ± 0.7	0.7496 ± 0.011
303.15 K, m1 = 0.1326	877.7 ± 0.7	0.7581 ± 0.011
303.15 K, m1 = 0.1767	879.6 ± 0.7	0.7658 ± 0.011
303.15 K, m1 = 0.2215	881.6 ± 0.7	0.7765 ± 0.011
303.15 K, m1 = 0.2656	883.5 ± 0.7	0.7833 ± 0.011
308.15 K, m1 = 0.0436	869.5 ± 0.8	0.6988 ± 0.01
308.15 K, m1 = 0.0884	871.4 ± 0.8	0.7021 ± 0.01
308.15 K, m1 = 0.1326	873.3 ± 0.8	0.7081 ± 0.01
308.15 K, m1 = 0.1767	875.2 ± 0.8	0.7159 ± 0.01
308.15 K, m1 = 0.2215	877.2 ± 0.8	0.726 ± 0.01
308.15 K, m1 = 0.2656	879.1 ± 0.8	0.7348 ± 0.011
313.15 K, m1 = 0.0436	865.8 ± 0.8	0.6532 ± 0.0099
313.15 K, m1 = 0.0884	867.7 ± 0.8	0.6592 ± 0.01
313.15 K, m1 = 0.1326	869.6 ± 0.8	0.6687 ± 0.01
313.15 K, m1 = 0.1767	871.5 ± 0.8	0.6742 ± 0.01
313.15 K, m1 = 0.2215	873.5 ± 0.8	0.681 ± 0.01
313.15 K, m1 = 0.2656	875.4 ± 0.8	0.6888 ± 0.01
318.15 K, m1 = 0.0436	861.5 ± 0.8	0.6212 ± 0.0097
318.15 K, m1 = 0.0884	863.4 ± 0.8	0.6256 ± 0.0097
318.15 K, m1 = 0.1326	865.3 ± 0.8	0.6319 ± 0.0098
318.15 K, m1 = 0.1767	867.2 ± 0.8	0.6407 ± 0.0098
318.15 K, m1 = 0.2215	869.2 ± 0.8	0.6473 ± 0.0099
318.15 K, m1 = 0.2656	871.1 ± 0.8	0.6525 ± 0.0099
323.15 K, m1 = 0.0436	857.3 ± 0.8	0.5792 ± 0.0094
323.15 K, m1 = 0.0884	859.2 ± 0.8	0.5832 ± 0.0094
323.15 K, m1 = 0.1326	861.1 ± 0.8	0.5905 ± 0.0094
323.15 K, m1 = 0.1767	863 ± 0.8	0.5967 ± 0.0095
323.15 K, m1 = 0.2215	865 ± 0.8	0.6011 ± 0.0095
323.15 K, m1 = 0.2656	866.9 ± 0.8	0.6087 ± 0.0096
328.15 K, m1 = 0.0436	853 ± 0.9	0.5498 ± 0.0091
328.15 K, m1 = 0.0884	854.9 ± 0.9	0.5531 ± 0.0092
328.15 K, m1 = 0.1326	856.8 ± 0.9	0.5601 ± 0.0092
328.15 K, m1 = 0.1767	858.7 ± 0.9	0.5665 ± 0.0093
328.15 K, m1 = 0.2215	860.7 ± 0.9	0.5706 ± 0.0093
328.15 K, m1 = 0.2656	862.6 ± 0.9	0.5773 ± 0.0093
333.15 K, m1 = 0.0436	848.9 ± 0.9	0.5177 ± 0.0089
333.15 K, m1 = 0.0884	850.8 ± 0.9	0.5202 ± 0.0089
333.15 K, m1 = 0.1326	852.7 ± 0.9	0.5277 ± 0.009
333.15 K, m1 = 0.1767	854.6 ± 0.9	0.5309 ± 0.009
333.15 K, m1 = 0.2215	856.6 ± 0.9	0.5358 ± 0.009
333.15 K, m1 = 0.2656	858.5 ± 0.9	0.5412 ± 0.0091

Cc1cccc(C)c1 [1,3-dimethylbenzene] + CC1=CC(=O)c2ccccc2C1=O
[2], m2 = 0
Settings	mass density [kg/m3]	viscosity [mPa·s]
303.15 K	855.6 ± 0.7	0.549 ± 0.0092
308.15 K	851.1 ± 0.8	0.5201 ± 0.009
313.15 K	846.9 ± 0.8	0.4967 ± 0.0088
318.15 K	842.4 ± 0.8	0.4817 ± 0.0087
323.15 K	838.3 ± 0.8	0.444 ± 0.0085
328.15 K	833.7 ± 0.9	0.435 ± 0.0084
333.15 K	829.6 ± 0.9	0.413 ± 0.0082
